In paper PMC12195615, “In Vitro and In Silico Assessments of Curcuminoids and Turmerones from Curcuma longa as Novel Inhibitors of Leishmania infantum Arginase” (Pharmaceuticals, 2025):
Values after ≈ are worked out from the molar mass of the structure shown. Where two headings read alike, the source gives them in different places. Marks after values point to notes of the source that are not given here.

Key:
[1] = system: RAW 264.7 (murine macrophages); test: Cytotoxicity assay (MTT), RAW 264.7; conditions: 48 h treatment, MTT; mean ± SE
Experimental: (§3) RAW 264.7 (murine macrophages) and VERO (normal African green monkey kidney epithelial cells) lines were obtained from Banco de Células do Rio de Janeiro (BCRJ, RJ, Brazil) under the codes 0212 and 0245, respectively. Both were cultured in complete DMEM medium (10% FBS, 100 U/mL penicillin, 100 µg/mL streptomycin, and 3 µg/mL Fungizone®) at 37 °C and 5% CO2 atmosphere. After reaching subconfluence, the cells were washed twice with cold phosphate saline buffer (PBS, pH 7.2), detached by trypsinization, and seeded into 96-well microplates (10^5 cells/100 μL). […] The cells were further incubated under the same conditions for another 48 h. Drug-free cells cultured in DMEM served as positive controls of viability. The concentration of the solvent (DMSO) was normalized in all wells (1%) of treatment and control. Cell viability was assessed using a colorimetric assay based on the reduction of tetrazolium salt [69].

[2] = system: intracellular L. infantum amastigotes; test: Inhibition of intracellular amastigotes in infected RAW 264.7 macrophages; type: cell-based, Leishmania infantum; conditions: for number of amastigotes per 100 infected macrophages: 20 μg/mL, 48 h, vs untreated control, p < 0.05; for IC50: Leishmania infantum
Experimental: (§1) After adhesion, the cells were incubated for 24 h in the presence of L. infantum promastigotes at a ratio of 10 parasites per macrophage at 35 °C in a 5% CO2 atmosphere. After the interaction period, the wells were washed with PBS to remove non-internalized promastigotes, and the infected macrophages were incubated for 24 h under the same conditions. […] Untreated infected macrophages served as a positive control for amastigote viability. After 48 h of treatment, the supernatant was collected, and the coverslips were stained with Panoptic. […] The IC50 was then calculated using dose–response curve regression analysis.

[3] = system: Leishmania amazonensis promastigotes; test: Anti-promastigote activity (resazurin), L. amazonensis; type: cell-based; conditions: 48 h
Experimental: (§2) Promastigote forms of Leishmania infantum (MHOM/BR/1974/PP75) and Leishmania amazonensis (IFLA/BR/1967/PH8) were cultured in complete Schneider’s Insect Medium (SIM, 10% FBS). […] Drug-free parasite cultures served as a positive control of viability. […] After 24 h of promastigote incubation, 100 μM resazurin was added, and the cells were cultured for an additional 24 h. At 48 h of the treatment, parasites were assessed fluorometrically (555 nm excitation and 585 nm emission) for viability using a microplate reader Spectra Max M2 (Molecular Devices, CA, USA). Dose–response curves were then generated, and the half-maximal inhibitory concentrations (IC50) for each treatment were determined through regression analysis.

[4] = system: sheep red blood cells (RBC); conditions: for hemolytic activity (CH50) RBC: sheep RBC, 1 h at 37 °C, mean ± SE
Experimental: Blood samples were washed four times with cold PBS to remove plasma, and a 4% (v/v) RBC suspension was prepared in the same buffer. […] After a 1 h incubation at 37 °C, the reaction was stopped by adding 200 µL of PBS. A positive hemolysis control was performed by adding 200 µL of distilled water to untreated cells. The microplates were then centrifuged (2000 rpm/5 min), and 200 µL of the supernatants were transferred to new 96-well microplates for spectrophotometric analysis at 540 nm (SpectraMax M2, Molecular Devices, CA, USA). The percentage of hemolysis for each treatment was calculated relative to the hemolysis control (100%), and the 50% hemolytic concentration (HC50) was determined through regression analysis of the dose–response curves.

[5] = system: VERO (normal African green monkey kidney epithelial cells); test: Cytotoxicity assay (MTT), VERO; type: cell-based; conditions: 48 h treatment, mean ± SE
Experimental: as §3

[6] = system: NO production by RAW 264.7 macrophages infected with L. infantum; test: NO production (Griess reaction) by L. infantum-infected macrophages; type: cell-based, murine; conditions: 48 h treatment, compared to untreated control
Experimental: as §1
The supernatant from L. infantum-infected macrophages, treated as described in Section 3.11, was collected to assess NO production using the Griess reaction. In short, 100 µL of the collected supernatants were transferred to 96-well microplates, followed by the addition of an equal volume of Griess reagent (0.5% sulfanilamide and 0.05% naphthylenediamine dihydrochloride in 5% phosphoric acid) to each well. The plates were then incubated at room temperature in the dark for 20 min. After incubation, the absorbance was measured at 570 nm.

[7] = system: Leishmania infantum promastigotes; test: Anti-promastigote activity (resazurin), L. infantum; type: cell-based; conditions: for L. infantum IC50 ± SE: promastigotes, resazurin; for IC50: Leishmania infantum
Experimental: as §2

[8] = target: recombinant arginase from L. infantum (LiARG) (Leishmania infantum, UniProt A4IB49); test: LiARG inhibition assay (urea quantification); type: biochemical
Experimental: The expression and purification of recombinant arginase from L. infantum (LiARG) were previously detailed by our group. LiARG inhibition was performed by incubating different concentrations (4.7 to 100 μg/mL) of the samples in the enzymatic reaction solution: 50 mM CHES buffer (pH 9.5) and 50 mM L-arginine. The enzymatic reaction was initiated by adding LiARG (10 μg/mL) and allowed to proceed for 5 min at 37 °C before being stopped on ice. Subsequently, enzymatic activity was assessed by measuring the conversion of L-arginine to urea using a commercial kit (Labtest UREA CE kit®, Lagoa Santa, MG, Brazil). The amount of urea produced in each reaction was determined spectrophotometrically at 600 nm, following its hydrolysis into ammonia and conversion into indophenol blue. […] From that, the IC50 was determined by regression analysis.

[9] = system: human arginase I; set-up: method as in PMID 37462864; conditions: cited from earlier work
[10] = system: mouse arginase; conditions: colorectal cancer model; cited from earlier work
[11] = Cytotoxicity assay (MTT), RAW 264.7; conditions: mouse, RAW 264.7 macrophage cells
Experimental: as §3

[12] = system: intracellular amastigote; conditions: 20 µM, within 24 h of treatment; cited from earlier work
[13] = system: L. donovani promastigotes; conditions: read-out: IC50 against L. donovani promastigotes; cited from earlier work
[14] = system: promastigotes and axenic amastigotes of L. donovani; conditions: 15 µM; cited from earlier work
[15] = system: L. major promastigotes; set-up: method as in PMID 10865470; conditions: cited from earlier work
[16] = system: L. major promastigotes; conditions: 15 µM; cited from earlier work
[17] = system: L. braziliensis; conditions: topical 1.5 mg/day, hamsters infected with L. braziliensis; cited from earlier work
[18] = system: J774.A.1 macrophages; set-up: method as in PMID 35325685; conditions: cited from earlier work
[19] = system: Pgp; conditions: affected the uptake of rhodamine-123 and digoxin; cited from earlier work

Question: What does the source list for O.O.O.O=C([O-])C(O)C(O)C(=O)[O-].O=C([O-])C(O)C(O)C(=O)[O-].[K+].[K+].[Sb].[Sb] (stereo not drawn) [PAT, potassium antimony(III) tartrate hydrate, reference compound]?
Answer: Cytotoxicity (CC50) RAW 264.7 [1]: 30.8 ± 0.73 ^b μg/mL; number of amastigotes per 100 infected macrophages [2]: significantly reduced; IC50 against intracellular L. infantum amastigotes ([2]; infected RAW 264.7, 48 h treatment): 18.9 ± 4.06 mg/L; L. amazonensis IC50 ± SE ([3]; promastigotes, resazurin): 11.9 ± 3.1 ^c,d µg/mL; hemolytic potential ([4]; at the highest concentration tested (100 μg/mL)): did not show hemolytic potential; hemolytic activity (CH50) RBC [4]: >100 µg/mL; Cytotoxicity (CC50) VERO [5]: 23.9 ± 1.5 ^b μg/mL; NO levels [6]: increased NO levels at 10 and 20 µg/mL; L. infantum IC50 ± SE ([7]; 48 h): <6.25 µg/mL

Question: Which IC50 [8] does the source give for O=c1c(O)c(-c2ccc(O)c(O)c2)oc2cc(O)cc(O)c12 [Quercetin (7), Quercetin, reference compound] here?
Answer: < 20.7 µM

Question: For CC(C)C1=C[C@H]2[C@@H](CC[C@]2(C)O)[C@](C)(O)CC1 [alismoxide], which “inhibitory activity against human arginase I” value [9] is on record?
Answer: showed inhibitory activity

Question: What does the source list for COc1cc(/C=C/C(=O)CC(=O)/C=C/c2ccc(O)c(OC)c2)ccc1O [compound 1, curcumin]?
Answer: reduction of mouse arginase activity [10]: 73%; CC50 at 48 h [11]: 69.8 ± 2.8 mg/L (≈ 189 µM); number of amastigotes per 100 infected macrophages [2]: significantly reduced; IC50 ([2]; RAW264.7, 48 h, read-out: IC50 against intracellular L. infantum amastigotes): 13.6 mg/L; IC50 ([2]; RAW264.7, converted from 13.6 µg/mL, read-out: IC50 against L. infantum intracellular amastigotes): ~36.9 µM; IC50 [8]: 47.6 µM; reduction of intracellular amastigote load [12]: 85%; IC50 [13]: 25 µM; IC50 ([3]; Leishmania amazonensis, read-out: L. amazonensis IC50 ± SE): 5.5 ± 0.45 mg/L (≈ 14.9 µM); hemolytic activity (CH50) RBC [4]: >200 µg/mL; growth of promastigotes and axenic amastigotes of L. donovani [14]: did not inhibit the growth; IC50 against L. major promastigotes [15]: 7.8 ± 3.3 mg/L (≈ 21.2 µM); NO levels [6]: reduced NO levels at concentrations starting from 5 µg/mL; growth of L. major promastigotes [16]: did not inhibit the growth; IC50 ([7]; 48 h, read-out: L. infantum IC50 ± SE, promastigotes, 48 h, resazurin): 15 mg/L; IC50 ([7]; read-out: IC50 against L. infantum promastigotes (molar), converted from 15.5 µg/mL): ~42 µM; L. infantum IC50 ± SE ([7]; 48 h, listed as Curcumin (1)): 15.5 ± 1.7 ^c µg/mL; therapeutic response [17]: 83%

Question: Which “IC50 against L. major promastigotes” value [15] does the source give for COc1cc(/C=C/C(O)=C/C(=O)/C=C/c2ccc(O)cc2)ccc1O [compound 2, demethoxycurcumin] here?
Answer: 14.1 ± 4.8 mg/L (≈ 41.7 µM)

Question: Which “IC50 against L. major promastigotes” value [15] does the source give for O=C(/C=C/c1ccc(O)cc1)CC(=O)/C=C/c1ccc(O)cc1 [compound 3, bisdemethoxycurcumin] here?
Answer: 21.5 ± 6.9 mg/L (≈ 69.7 µM)

Question: With CC(C)=CC(=O)C[C@H](C)c1ccc(C)cc1 [compound 4, ar-turmerone] as the compound, how does the “CC50 J774.A.1 macrophages” value [18] read?
Answer: 720.06 mg/L (≈ 3330 µM)

Question: With CC(C)=CC(=O)C[C@H](C)C1C=CC(C)=CC1 (stereo partly drawn) [compound 5, α-turmerone] as the compound, how does the Pgp inhibition [19] read?
Answer: Pgp inhibitor
